Experimental data taken from US20230077362A1 (CORTEVA AGRISCIENCE LLC, priority 2019, published 2023).

Tests used:
Type in all cases: in vivo
[1] = tested on: Beet Armyworm (Spodoptera exigua) ("BAW"), second instar larvae; assay: Bioassay on beet armyworm (BAW), 128-well diet tray assay; details: Spodoptera exigua, read-out: BAW (Biological Results, rating)
Method in brief: (§1)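 Mortality (%) is scored well by well after five to seven days at 25° C. on a 14:10 light:dark regime. The value given is the mean of eight wells.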

[2] = tested on: Cabbage Looper (Trichoplusia ni) ("CL"), second instar larvae; assay: Bioassay on cabbage looper (CL), 128-well diet tray assay; details: Trichoplusia ni, read-out: CL (Biological Results, rating)
Method in brief: as §1

[3] = tested on: Green Peach Aphid ("GPA") (Myzus persicae), wingless adult and nymph stages; assay: Bioassay on green peach aphid (GPA), foliar spray on infested cabbage seedlings; details: Myzus persicae, foliar, 72 h, read-out: GPA (Biological Results, rating)
Method in brief: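 Values are corrected % control, 100*(X−Y)/X, from live aphid counts per plant under a microscope, treated versus solvent-check plants. Four infested seedlings (20-50 GPA each) per treatment were sprayed to runoff and kept three days near 25° C at ambient RH.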

Row | SMILES | pest or weed control at 50 µg/cm2 [1] [%] | pest or weed control at 50 µg/cm2 [2] [%] | pest or weed control at 200 µg/mL [3] [%]
1 | Cc1ccc(C(C)C)c(N2C(=O)CS/C2=N\C(=O)Nc2ccc(-c3ncn(-c4cccc(OC(F)(F)F)c4)n3)cc2F)c1 [Compound J143, (Z)-1-(2-Fluoro-4-(1-(3-(trifluoromethoxy)phenyl)-1H-1,2,4-triazol-3-yl)phenyl)-3-(3-(2-isopropyl-5-methylphenyl)-4-oxothiazolidin-2-ylidene)urea] | 50 to 100 | 50 to 100 | 0 to 80
2 | COc1ccc(-n2cnc(-c3ccc(NC(=O)/N=C4\SCC(=O)N4c4cc(OC)ccc4C(C)C)c(F)c3)n2)cc1 [Compound J145, (Z)-1-(2-Fluoro-4-(1-(4-methoxyphenyl)-1H-1,2,4-triazol-3-yl)phenyl)-3-(3-(2-isopropyl-5-methoxyphenyl)-4-oxothiazolidin-2-ylidene)urea] | 50 to 100 | 50 to 100 | 0 to 80
3 | COc1ccc(-n2cnc(-c3ccc(NC(=O)/N=C4\SCC(=O)N4c4cc(N(C)C)ccc4C(C)C)c(F)c3)n2)cc1 [Compound J146, (Z)-1-(3-(5-(Dimethylamino)-2-isopropylphenyl)-4-oxothiazolidin-2-ylidene)-3-(2-fluoro-4-(1-(4-methoxyphenyl)-1H-1,2,4-triazol-3-yl)phenyl)urea] | 50 to 100 | 50 to 100 | 0 to 80
4 | Cc1ccc(-n2cnc(-c3ccc(NC(=O)/N=C4\SCC(=O)N4c4cc(C)ccc4C(C)C)c(F)c3)n2)cc1 [Compound J148, (Z)-1-(2-Fluoro-4-(1-(p-tolyl)-1H-1,2,4-triazol-3-yl)phenyl)-3-(3-(2-isopropyl-5-methylphenyl)-4-oxothiazolidin-2-ylidene)urea] | 50 to 100 | 50 to 100 | 0 to 80
5 | COc1ccc(C(C)C)c(N2C(=O)CS/C2=N\C(=O)Nc2ccc(-c3ncn(-c4ccc(C)cc4)n3)cc2F)c1 [Compound J149, (Z)-1-(2-Fluoro-4-(1-(p-tolyl)-1H-1,2,4-triazol-3-yl)phenyl)-3-(3-(2-isopropyl-5-methoxyphenyl)-4-oxothiazolidin-2-ylidene)urea] | 50 to 100 | 50 to 100 | 0 to 80
6 | Cc1ccc(-n2cnc(-c3ccc(NC(=O)/N=C4\SCC(=O)N4c4cc(C)ccc4OCCC(F)(F)F)c(F)c3)n2)cc1 [Compound J151, (Z)-1-(2-Fluoro-4-(1-(p-tolyl)-1H-1,2,4-triazol-3-yl)phenyl)-3-(3-(5-methyl-2-(3,3,3-trifluoropropoxy)phenyl)-4-oxothiazolidin-2-ylidene)urea] | 50 to 100 | 50 to 100 | 0 to 80
7 | COc1ccc(C(C)C)c(N2C(=O)CS/C2=N\C(=O)Nc2ccc(-c3ncn(-c4cccc(C(F)(F)F)c4)n3)cc2F)c1 [Compound J152, (Z)-1-(2-Fluoro-4-(1-(3-(trifluoromethyl)phenyl)-1H-1,2,4-triazol-3-yl)phenyl)-3-(3-(2-isopropyl-5-methoxyphenyl)-4-oxothiazolidin-2-ylidene)urea] | 50 to 100 | 50 to 100 | 0 to 80
8 | CC(C)c1ccc(N(C)C)cc1N1C(=O)CS/C1=N\C(=O)Nc1ccc(-c2ncn(-c3cccc(C(F)(F)F)c3)n2)cc1F [Compound J153, (Z)-1-(3-(5-(Dimethylamino)-2-isopropylphenyl)-4-oxothiazolidin-2-ylidene)-3-(2-fluoro-4-(1-(3-(trifluoromethyl)phenyl)-1H-1,2,4-triazol-3-yl)phenyl)urea] | 50 to 100 | 50 to 100 | 0 to 80
9 | COc1ccc(C(C)C)c(N2C(=O)CS/C2=N\C(=O)Nc2ccc(-c3ncn(-c4cccc(OC(F)(F)F)c4)n3)cc2F)c1 [Compound J154, (Z)-1-(2-Fluoro-4-(1-(3-(trifluoromethoxy)phenyl)-1H-1,2,4-triazol-3-yl)phenyl)-3-(3-(2-isopropyl-5-methoxyphenyl)-4-oxothiazolidin-2-ylidene)urea] | 50 to 100 | 50 to 100 | 0 to 80
10 | Cc1ccc(COCC(F)(F)F)c(N2C(=O)CS/C2=N\C(=O)Nc2ccc(-c3ncn(-c4ccc(C(F)(F)F)cc4)n3)cc2F)c1 [Compound J168, (Z)-1-(2-Fluoro-4-(1-(4-(trifluoromethyl)phenyl)-1H-1,2,4-triazol-3-yl)phenyl)-3-(3-(5-methyl-2-((2,2,2-trifluoroethoxy)methyl)phenyl)-4-oxothiazolidin-2-ylidene)urea] | 50 to 100 | 50 to 100 | 0 to 80
11 | CCCc1ccc(OCC)cc1N1C(=O)CS/C1=N\C(=O)Nc1ccc(-c2ncn(-c3ccc(OC(F)(F)F)cc3)n2)cc1F [Compound J169, (Z)-1-(3-(5-Ethoxy-2-propylphenyl)-4-oxothiazolidin-2-ylidene)-3-(2-fluoro-4-(1-(4-(trifluoromethoxy)phenyl)-1H-1,2,4-triazol-3-yl)phenyl)urea] | 50 to 100 | 50 to 100 | 0 to 80
12 | COCOc1cc(-c2ncn(-c3ccc(OC(F)(F)F)cc3)n2)ccc1NC(=O)/N=C1\SCC(=O)N1c1cc(N(C)C)ccc1C(C)C [Compound J172, (Z)-1-(3-(5-(Dimethylamino)-2-isopropylphenyl)-4-oxothiazolidin-2-ylidene)-3-(2-(methoxymethoxy)-4-(1-(4-(trifluoromethoxy)phenyl)-1H-1,2,4-triazol-3-yl)phenyl)urea] | 50 to 100 | 50 to 100 | 0 to 80
13 | CCOCc1ccc(C)cc1N1C(=O)CS/C1=N\C(=O)Nc1ccc(-c2ncn(-c3ccc(OC(F)(F)F)cc3)n2)cc1F [Compound J180, (Z)-1-(3-(2-(Ethoxymethyl)-5-methylphenyl)-4-oxothiazolidin-2-ylidene)-3-(2-fluoro-4-(1-(4-(trifluoromethoxy)phenyl)-1H-1,2,4-triazol-3-yl)phenyl)urea] | 50 to 100 | 50 to 100 | 0 to 80
14 | COC(c1ccc(C)cc1N1C(=O)CS/C1=N\C(=O)Nc1ccc(-c2ncn(-c3ccc(OC(F)(F)F)cc3)n2)cc1F)C(F)(F)F (stereo not drawn) [Compound J181, (Z)-1-(2-Fluoro-4-(1-(4-(trifluoromethoxy)phenyl)-1H-1,2,4-triazol-3-yl)phenyl)-3-(3-(5-methyl-2-(2,2,2-trifluoro-1-methoxyethyl)phenyl)-4-oxothiazolidin-2-ylidene)urea] | 50 to 100 | 50 to 100 | 0 to 80
15 | CC(C)c1cc(F)c(N(C)C)cc1N1C(=O)CS/C1=N\C(=O)Nc1ccc(-c2ncn(-c3ccc(C(F)(F)F)cc3)n2)cc1F [Compound J183, (Z)-1-(3-(5-(Dimethylamino)-4-fluoro-2-isopropylphenyl)-4-oxothiazolidin-2-ylidene)-3-(2-fluoro-4-(1-(4-(trifluoromethyl)phenyl)-1H-1,2,4-triazol-3-yl)phenyl)urea] | 50 to 100 | 50 to 100 | 0 to 80
16 | CCN(C(C)=O)c1ccc(C(C)C)c(N2C(=O)CS/C2=N\C(=O)Nc2ccc(-c3ncn(-c4ccc(OC(F)(F)F)cc4)n3)cc2F)c1 [Compound J189, (Z)-N-Ethyl-N-(3-(2-(((2-fluoro-4-(1-(4-(trifluoromethoxy)phenyl)-1H-1,2,4-triazol-3-yl)phenyl)carbamoyl)imino)-4-oxothiazolidin-3-yl)-4-isopropylphenyl)acetamide] | 50 to 100 | 50 to 100 | 0 to 80
17 | CCOc1ccc(N(C)C)cc1N1C(=O)CS/C1=N\C(=O)Nc1ccc(-c2ncn(-c3ccc(OC(F)(F)F)cc3)n2)cc1F [Compound J192, (Z)-1-(3-(5-(Dimethylamino)-2-ethoxyphenyl)-4-oxothiazolidin-2-ylidene)-3-(2-fluoro-4-(1-(4-(trifluoromethoxy)phenyl)-1H-1,2,4-triazol-3-yl)phenyl)urea] | 50 to 100 | 50 to 100 | 0 to 80
18 | CN(C)c1ccc(OCC(F)(F)F)c(N2C(=O)CS/C2=N\C(=O)Nc2ccc(-c3ncn(-c4ccc(OC(F)(F)F)cc4)n3)cc2F)c1 [Compound J193, (Z)-1-(3-(5-(Dimethylamino)-2-(2,2,2-trifluoroethoxy)phenyl)-4-oxothiazolidin-2-ylidene)-3-(2-fluoro-4-(1-(4-(trifluoromethoxy)phenyl)-1H-1,2,4-triazol-3-yl)phenyl)urea] | 50 to 100 | 50 to 100 | 0 to 80
19 | Cc1ccc(COCC(F)(F)F)c(N2C(=O)CS/C2=N\C(=O)Nc2ccc(-c3ncn(-c4ccc(OC(F)(F)F)cc4)n3)cc2Cl)c1 [Compound J194, (Z)-1-(2-Chloro-4-(1-(4-(trifluoromethoxy)phenyl)-1H-1,2,4-triazol-3-yl)phenyl)-3-(3-(5-methyl-2-((2,2,2-trifluoroethoxy)methyl)phenyl)-4-oxothiazolidin-2-ylidene)urea] | 50 to 100 | 50 to 100 | 0 to 80
